Results reported in ChEMBL document CHEMBL1201862, “PubChem BioAssay data set” (2004).
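Values below derive from 48-hour exposures of cells grown in 96-well plates, with endpoints linearly interpolated between the two concentrations bracketing the appropriate inhibition level. GI50 = concentration required for 50% inhibition of growth.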 Calls of active or inactive are those of the source. Cut-off read from the data, not from the text of the source: active = GI50 up to about 1.1 µM and inactive = higher.

Columns and labels:
Assay in all cases: growth of human tumour cells (NCI), 48 h
[1] = tested on: A498
[2] = tested on: PC-3
[3] = tested on: SF-268
[4] = tested on: UO-31
[5] = tested on: SF-539
[6] = tested on: KM12
[7] = tested on: A549
[8] = tested on: HCT-15
[9] = tested on: NCI-H226
[10] = tested on: OVCAR-3
[11] = tested on: MCF7
[12] = tested on: SK-MEL-5
[13] = tested on: HOP-92
[14] = tested on: HOP-62
[15] = tested on: UACC-62
[16] = tested on: MDA-MB-435
[17] = tested on: MDA-MB-231
[18] = tested on: HCC 2998
[19] = tested on: HCT-116
[20] = tested on: SR

SMILES	GI50 [1]	GI50 [2]	GI50 [3]	GI50 [4]	GI50 [5]	GI50 [6]	GI50 [7]	GI50 [8] [µM]	GI50 [9]	GI50 [10]	GI50 [11]	GI50 [12]	GI50 [13]	GI50 [14]	GI50 [15]	GI50 [16]	GI50 [17]	GI50 [18]	GI50 [19]	GI50 [20]
COc1cc2c(cc1OC)-c1cc3cc(OC)c(OC)cc3c(=O)n1CC2	7.59 µM (inactive)	21.2 µM (inactive)	26.5 µM (inactive)	2.43 µM (inactive)	6.12 µM (inactive)	> 50.5 µM (inactive)	41.2 µM (inactive)	38.5	8.75 µM (inactive)	15.7 µM (inactive)	5.89 µM (inactive)	4.41 µM (inactive)	2.34 µM (inactive)	6.5 µM (inactive)	5.35 µM (inactive)	31.6 µM (inactive)	14.8 µM (inactive)	30.7 µM (inactive)	16.3 µM (inactive)	2.07 µM (inactive)
CC(C)(C)OC(=O)[C@@H]1CCC(=S)N1Cc1ccccc1	> 100 µM (inactive)	> 100 µM (inactive)	–	78.2 µM (inactive)	> 100 µM (inactive)	> 100 µM (inactive)	> 100 µM (inactive)	> 100	60.1 µM (inactive)	> 100 µM (inactive)	> 100 µM (inactive)	47.4 µM (inactive)	> 100 µM (inactive)	–	> 100 µM (inactive)	> 100 µM (inactive)	> 100 µM (inactive)	> 100 µM (inactive)	> 100 µM (inactive)	76.9 µM (inactive)
Cc1ccc(C(=O)/C=C2\Nc3ccccc3NC2=O)cc1	20.5 µM (inactive)	4.84 µM (inactive)	5.96 µM (inactive)	4.38 µM (inactive)	4.78 µM (inactive)	17.1 µM (inactive)	4.94 µM (inactive)	56.6	1.65 µM (inactive)	2.99 µM (inactive)	9.98 µM (inactive)	10.4 µM (inactive)	3.28 µM (inactive)	2.04 µM (inactive)	2.26 µM (inactive)	10.9 µM (inactive)	2.78 µM (inactive)	11.5 µM (inactive)	2.17 µM (inactive)	15.5 µM (inactive)
CN1CCC(OC(=O)Oc2ccccc2)(c2ccccc2)CC1	23.8 µM (inactive)	18 µM (inactive)	37.1 µM (inactive)	19.6 µM (inactive)	13.6 µM (inactive)	17.9 µM (inactive)	38.2 µM (inactive)	16.7	22.7 µM (inactive)	61.5 µM (inactive)	20 µM (inactive)	20 µM (inactive)	–	15.5 µM (inactive)	21.5 µM (inactive)	17.3 µM (inactive)	12.9 µM (inactive)	19.6 µM (inactive)	13 µM (inactive)	15.9 µM (inactive)
Brc1ccc(C2CC3(c4ccccc4)ON=C(c4ccccc4)N3c3ccccc3S2)cc1 (stereo not drawn)	> 100 µM (inactive)	> 100 µM (inactive)	> 100 µM (inactive)	> 100 µM (inactive)	> 100 µM (inactive)	> 100 µM (inactive)	> 100 µM (inactive)	> 100	> 100 µM (inactive)	> 100 µM (inactive)	> 100 µM (inactive)	> 100 µM (inactive)	> 100 µM (inactive)	> 100 µM (inactive)	> 100 µM (inactive)	> 100 µM (inactive)	> 100 µM (inactive)	> 100 µM (inactive)	5.87 µM (inactive)	28.1 µM (inactive)
COc1ccc(-n2cnc3c(NCC(=O)O)ncnc32)cc1	> 100 µM (inactive)	> 100 µM (inactive)	> 100 µM (inactive)	> 100 µM (inactive)	–	> 100 µM (inactive)	> 100 µM (inactive)	> 100	> 100 µM (inactive)	> 100 µM (inactive)	> 100 µM (inactive)	> 100 µM (inactive)	> 100 µM (inactive)	> 100 µM (inactive)	> 100 µM (inactive)	> 100 µM (inactive)	> 100 µM (inactive)	> 100 µM (inactive)	> 100 µM (inactive)	> 100 µM (inactive)
Cc1ccnc2nc3[nH]c4ccccc4c3cc12	> 100 µM (inactive)	> 100 µM (inactive)	> 100 µM (inactive)	> 100 µM (inactive)	> 100 µM (inactive)	> 100 µM (inactive)	> 100 µM (inactive)	> 100	> 100 µM (inactive)	> 100 µM (inactive)	> 100 µM (inactive)	> 100 µM (inactive)	> 100 µM (inactive)	75.7 µM (inactive)	> 100 µM (inactive)	> 100 µM (inactive)	> 100 µM (inactive)	> 100 µM (inactive)	> 100 µM (inactive)	71.1 µM (inactive)
O=C1CC2(c3ccccc3)ON=C(c3ccccc3)N2c2ccccc2N1 (stereo not drawn)	95.3 µM (inactive)	30.5 µM (inactive)	50.5 µM (inactive)	32.4 µM (inactive)	> 100 µM (inactive)	74 µM (inactive)	–	53.8	> 100 µM (inactive)	30.8 µM (inactive)	55.7 µM (inactive)	–	22.1 µM (inactive)	78.7 µM (inactive)	37.5 µM (inactive)	20 µM (inactive)	40.8 µM (inactive)	65 µM (inactive)	34.3 µM (inactive)	35.6 µM (inactive)
CCc1n[nH]c(=O)n1-c1ccncc1	> 100 µM (inactive)	> 100 µM (inactive)	> 100 µM (inactive)	> 100 µM (inactive)	> 100 µM (inactive)	> 100 µM (inactive)	> 100 µM (inactive)	> 100	> 100 µM (inactive)	> 100 µM (inactive)	> 100 µM (inactive)	> 100 µM (inactive)	> 100 µM (inactive)	> 100 µM (inactive)	–	> 100 µM (inactive)	> 100 µM (inactive)	> 100 µM (inactive)	> 100 µM (inactive)	> 100 µM (inactive)
O/N=C1\CCc2cc3c(cc21)CCC3	> 100 µM (inactive)	> 100 µM (inactive)	97.9 µM (inactive)	> 100 µM (inactive)	> 100 µM (inactive)	> 100 µM (inactive)	> 100 µM (inactive)	> 100	> 100 µM (inactive)	> 100 µM (inactive)	> 100 µM (inactive)	> 100 µM (inactive)	55.7 µM (inactive)	> 100 µM (inactive)	> 100 µM (inactive)	> 100 µM (inactive)	> 100 µM (inactive)	> 100 µM (inactive)	> 100 µM (inactive)	> 100 µM (inactive)
COC(=O)/C(C#N)=C(\Nc1ccccc1)N1CCCC1	> 100 µM (inactive)	> 100 µM (inactive)	> 100 µM (inactive)	> 100 µM (inactive)	> 100 µM (inactive)	–	> 100 µM (inactive)	> 100	> 100 µM (inactive)	> 100 µM (inactive)	> 100 µM (inactive)	> 100 µM (inactive)	> 100 µM (inactive)	> 100 µM (inactive)	–	> 100 µM (inactive)	> 100 µM (inactive)	> 100 µM (inactive)	> 100 µM (inactive)	> 100 µM (inactive)
O=C1C(Cl)C(c2cc3cc(Br)ccc3nc2Cl)N1c1ccc(F)c(Cl)c1 (stereo not drawn)	5.61 µM (inactive)	3.59 µM (inactive)	2.99 µM (inactive)	0.118 µM (active)	1.51 µM (inactive)	3.21 µM (inactive)	12.6 µM (inactive)	6.44	6.7 µM (inactive)	4.13 µM (inactive)	5.96 µM (inactive)	9.02 µM (inactive)	1.31 µM (inactive)	1.76 µM (inactive)	9.12 µM (inactive)	5.64 µM (inactive)	8.09 µM (inactive)	11.7 µM (inactive)	7.94 µM (inactive)	1.03 µM (active)
O=C(Nc1c(C(F)(F)F)cc(-c2ccccc2)[nH]c1=O)N1CCOCC1	> 100 µM (inactive)	> 100 µM (inactive)	> 100 µM (inactive)	> 100 µM (inactive)	–	> 100 µM (inactive)	79.1 µM (inactive)	> 100	> 100 µM (inactive)	70.8 µM (inactive)	> 100 µM (inactive)	38.1 µM (inactive)	58.9 µM (inactive)	> 100 µM (inactive)	> 100 µM (inactive)	> 100 µM (inactive)	> 100 µM (inactive)	> 100 µM (inactive)	> 100 µM (inactive)	54.3 µM (inactive)
C=CCN(c1cc(OC)c2[nH]cc(C)c2c1[N+](=O)[O-])S(C)(=O)=O	> 100 µM (inactive)	> 100 µM (inactive)	> 100 µM (inactive)	> 100 µM (inactive)	> 100 µM (inactive)	> 100 µM (inactive)	> 100 µM (inactive)	> 100	> 100 µM (inactive)	> 100 µM (inactive)	> 100 µM (inactive)	> 100 µM (inactive)	–	> 100 µM (inactive)	> 100 µM (inactive)	> 100 µM (inactive)	> 100 µM (inactive)	> 100 µM (inactive)	> 100 µM (inactive)	> 100 µM (inactive)
Cc1cc(N2CCCC2)c([N+](=O)[O-])cc1[N+](=O)[O-]	> 100 µM (inactive)	> 100 µM (inactive)	> 100 µM (inactive)	> 100 µM (inactive)	> 100 µM (inactive)	> 100 µM (inactive)	> 100 µM (inactive)	> 100	> 100 µM (inactive)	> 100 µM (inactive)	> 100 µM (inactive)	> 100 µM (inactive)	> 100 µM (inactive)	–	> 100 µM (inactive)	> 100 µM (inactive)	> 100 µM (inactive)	> 100 µM (inactive)	> 100 µM (inactive)	> 100 µM (inactive)
